Patent publication US8022205B2, “Pyrimidine derivatives as PI3K inhibitor and use thereof” (Chugai Seiyaku Kabushiki Kaisha, priority 2006, dated 2011)

Assays:
[1] = test system: human lung cancer cell line NCI-H460; test: Cell proliferation inhibitory activity (Cell Counting Kit-8), lung cancer NCI-H460; type: cell-based; settings: 96 h, NCI-H460, 4 days, read-out: Cell proliferation inhibitory activity (% Inhibition at 2.5 μM) Non-small cell lung cancer (NCI-H460)
Protocol: (§1) The cell proliferation inhibitory activity was measured for compounds of the present invention represented by formula (I). Cancer cell proliferation inhibitory activity was measured using the Cell Counting Kit-8 (Dojindo). 2000 cells each of human colon cancer cell line HCT116 purchased from the American Type Culture Collection (Virginia, USA) were seeded into each well of a 96-well culture plate followed by the addition of a predetermined concentration of the compounds and cultivating in a CO2environment for 4 days at 37° C. On the fourth day of cultivating, the Cell Counting Kit-8 solution was added and absorbance (measuring wavelength: 450 nm, reference wavelength: 615 nm) was measured in accordance with the protocol provided with the kit.
(§2) Cancer cell proliferation inhibitory activity was also measured for human lung cancer cell line NCI-H460 and human prostate cancer cell line PC3 purchased from the American Type Culture Collection. 1000 and 3000 cells of NCI-H460 and PC3, respectively, were seeded into each well of a 96-well culture plate followed by testing in the same manner as the human colon cancer cell line and calculating the percentage of cell proliferation inhibition at 2.5 μM.

[2] = test system: human prostate cancer cell line PC3; test: Cell proliferation inhibitory activity (Cell Counting Kit-8), prostate cancer PC3; type: cell-based; settings: 96 h, PC3, 4 days
Protocol: as §1, §2

human PI3K(p110α/p85α) = human PI3K(p110α/p85α) (Homo sapiens, UniProt P42336); test: Measurement of PI3K inhibitory activity (AlphaScreen GST Detection Kit); type: biochemical; settings: 10 μM ATP, 4 μM PI(4,5)P2, read-out: Enzyme inhibitory activity (IC50, μM) PI3K α
human PI3K(p110α/p85α), sequence (P42336 whole entry): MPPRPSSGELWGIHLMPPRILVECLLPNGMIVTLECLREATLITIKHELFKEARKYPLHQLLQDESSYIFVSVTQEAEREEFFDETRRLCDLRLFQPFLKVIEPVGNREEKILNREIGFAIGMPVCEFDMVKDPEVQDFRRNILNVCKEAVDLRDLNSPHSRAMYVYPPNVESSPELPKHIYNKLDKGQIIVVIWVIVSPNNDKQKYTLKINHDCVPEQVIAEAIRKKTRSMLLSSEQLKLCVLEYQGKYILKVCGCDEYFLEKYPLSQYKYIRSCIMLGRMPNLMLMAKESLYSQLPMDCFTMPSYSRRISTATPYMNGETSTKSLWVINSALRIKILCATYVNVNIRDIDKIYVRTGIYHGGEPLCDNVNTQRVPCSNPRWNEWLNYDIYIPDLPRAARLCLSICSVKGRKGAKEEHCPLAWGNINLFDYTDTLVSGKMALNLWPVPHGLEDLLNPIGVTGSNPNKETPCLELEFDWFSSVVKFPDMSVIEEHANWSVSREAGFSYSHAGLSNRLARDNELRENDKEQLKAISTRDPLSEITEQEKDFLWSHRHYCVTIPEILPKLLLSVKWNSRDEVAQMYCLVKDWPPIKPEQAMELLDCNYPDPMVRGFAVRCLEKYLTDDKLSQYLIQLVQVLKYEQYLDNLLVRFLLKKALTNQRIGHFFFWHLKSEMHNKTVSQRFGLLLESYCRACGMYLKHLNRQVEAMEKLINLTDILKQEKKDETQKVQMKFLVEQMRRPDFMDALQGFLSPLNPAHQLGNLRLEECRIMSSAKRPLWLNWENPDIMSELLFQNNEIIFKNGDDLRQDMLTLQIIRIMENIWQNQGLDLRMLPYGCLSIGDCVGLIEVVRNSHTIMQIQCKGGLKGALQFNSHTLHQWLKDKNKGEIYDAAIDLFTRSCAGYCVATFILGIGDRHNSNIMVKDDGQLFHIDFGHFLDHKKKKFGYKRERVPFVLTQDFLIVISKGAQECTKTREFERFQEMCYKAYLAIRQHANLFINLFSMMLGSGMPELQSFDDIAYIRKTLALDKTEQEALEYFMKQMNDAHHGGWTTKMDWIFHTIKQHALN
human PI3K(p110α/p85α), sequence (P27986 whole entry partner): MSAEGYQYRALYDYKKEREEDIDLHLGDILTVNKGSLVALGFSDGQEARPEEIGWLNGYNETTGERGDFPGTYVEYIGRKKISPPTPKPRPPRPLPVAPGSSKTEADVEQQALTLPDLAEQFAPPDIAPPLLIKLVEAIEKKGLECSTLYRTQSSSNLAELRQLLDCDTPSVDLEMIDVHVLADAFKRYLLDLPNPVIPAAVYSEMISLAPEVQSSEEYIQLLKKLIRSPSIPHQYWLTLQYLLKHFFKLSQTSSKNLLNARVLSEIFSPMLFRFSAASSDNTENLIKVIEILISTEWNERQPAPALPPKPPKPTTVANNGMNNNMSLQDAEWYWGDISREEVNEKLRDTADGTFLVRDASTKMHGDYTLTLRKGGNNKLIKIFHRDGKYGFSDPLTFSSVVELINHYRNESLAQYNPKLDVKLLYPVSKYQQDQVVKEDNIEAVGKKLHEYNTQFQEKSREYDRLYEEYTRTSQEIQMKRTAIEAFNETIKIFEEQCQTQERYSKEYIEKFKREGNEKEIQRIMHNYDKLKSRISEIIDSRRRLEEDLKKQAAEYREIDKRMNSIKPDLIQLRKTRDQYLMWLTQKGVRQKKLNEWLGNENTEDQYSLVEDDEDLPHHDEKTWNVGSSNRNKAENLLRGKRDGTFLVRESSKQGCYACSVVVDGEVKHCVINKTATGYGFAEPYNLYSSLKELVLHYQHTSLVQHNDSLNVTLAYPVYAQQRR
Protocol: The inhibitory activity of compounds of the present invention represented by formula (I) were measured with human PI3K(p110α/p85α) prepared in a baculovirus expression system using the AlphaScreen GST Detection Kit (Perkin Elmer, Inc.). A predetermined concentration of the compound dissolved in dimethylsulfoxide (DMSO) and PI3K were mixed in a 384-well assay plate and after allowing to stand for 20 minutes at room temperature, 4 μM PI(4,5)P2 (Echelon Corporation) and 10 μM ATP (5 mM Hepes, pH 7.5, 2.5 mM MgCl2) were added to initiate the reaction. After reacting for 15 minutes at 37° C., GST-GRP1 expressed and purified from Escherichia coli, Anti-GST Acceptor Beads (Perkin Elmer, Inc.), Streptavidin Donor Beads (Perkin Elmer, Inc.) and biotin-PI(3,4,5) P3 (Echelon Corporation) (10 mM Tris-HCl pH 7.4, 150 mM NaCl, 7.5 mM EDTA, 1 mM DTT, 0.1% Tween 20) were added, and after allowing to stand for 1 hour at room temperature, light at 520 to 620 nm emitted as a result of exciting with light at 680 nm was measured with the Envision measuring instrument (Perkin Elmer, Inc.).
Test Example 1 described above can be performed according to “Analytical Biochemistry, 2003, 313, 234-245; Alexander Gray et al”.

[3] = test system: human colon cancer cell line HCT116; test: Cell proliferation inhibitory activity (Cell Counting Kit-8), colon cancer HCT116; type: cell-based; settings: HCT-116, 96 h, HCT116, 4 days
Protocol: as §1

Row | SMILES | IC50 (human PI3K(p110α/p85α)) [µM] | inhibition at 2.5 µM [1] [%] | inhibition at 2.5 µM [2] [%] | inhibition at 2.5 µM [3] [%]
1 | Nc1ncc(-c2nc(N3CCOCC3)nc3c2CCN3c2ccc(C(=O)N3CCN(c4cccnc4)CC3)cc2)cn1 [Example D-20, {4-[4-(2-Amino-pyrimidin-5-yl)-2-morpholin-4-yl-5,6-dihydro-pyrrolo[2,3-d]pyrimidin-7-yl]-phenyl}-(4-pyridin-3-yl-piperazin-1-yl)-methanone] | 0.046 | 99 | 99 | 83
2 | Nc1ncc(-c2nc(N3CCOCC3)nc3c2CCN3c2ccc(C(=O)N3CCN(c4cccnc4)CC3)cc2F)cn1 [Example D-21, {4-[4-(2-Amino-pyrimidin-5-yl)-2-morpholin-4-yl-5,6-dihydro-pyrrolo[2,3-d]pyrimidin-7-yl]-3-fluoro-phenyl}-(4-pyridin-3-yl-piperazin-1-yl)-methanone] | 0.01 | 79 | 100 | 77
3 | Nc1ncc(-c2nc(N3CCOCC3)nc3c2CCN3c2ccc(C(=O)N3CCOCC3)cc2F)cn1 [Example D-22, {4-[4-(2-Amino-pyrimidin-5-yl)-2-morpholin-4-yl-5,6-dihydro-pyrrolo[2,3-d]pyrimidin-7-yl]-3-fluoro-phenyl}-morpholin-4-yl-methanone] | 0.042 | 83 | 79 | 82
4 | CN1CCN(c2cc(F)c(NC(=O)N3CCc4c(-c5cnc(N)nc5)nc(N5CCOCC5)nc43)c(F)c2)CC1 [Example D-23, 4-(2-Amino-pyrimidin-5-yl)-2-morpholin-4-yl-5,6-dihydro-pyrrolo[2,3-d]pyrimidine-7-carboxylic acid [4-(4-methyl-piperazin-1-yl)-2,6-difluoro-phenyl]-amide] | 0.006 | 100 | 89 | 99
5 | CCN1CCN(C(=O)c2cc(F)c(NC(=O)N3CCc4c(-c5cnc(N)nc5)nc(N5CCOCC5)nc43)c(F)c2)CC1 [Example D-24, 4-(2-Amino-pyrimidin-5-yl)-2-morpholin-4-yl-5,6-dihydro-pyrrolo[2,3-d]pyrimidine-7-carboxylic acid [4-(4-ethyl-piperazine-1-carbonyl)-2,6-difluoro-phenyl]-amide] | 0.034 | 94 | 91 | 88
6 | Cc1ccc(C(=O)N2CCOCC2)cc1N1CCc2c(-c3cnc(N)nc3)nc(N3CCOCC3)nc21 [Example D-25, {3-[4-(2-Amino-pyrimidin-5-yl)-2-morpholin-4-yl-5,6-dihydro-pyrrolo[2,3-d]pyrimidin-7-yl]-4-methyl-phenyl}-morpholin-4-yl-methanone] | 0.22 | 57 | 55 | 61
7 | CN1CCN(Cc2ccc(N3CCc4c(-c5cnc(N)nc5)nc(N5CCOCC5)nc43)cc2)CC1 [Example D-26, 5-{7-[4-(4-methyl-piperazin-1-ylmethyl)-phenyl]-2-morpholin-4-yl-6,7-dihydro-5H-pyrrolo[2,3-d]pyrimidin-4-yl}-pyrimidin-2-ylamine] | 0.048 | 84 | 82 | 87
8 | CN1CCN(C(=O)c2ccc(N3CCc4c(-c5cnc(N)nc5)nc(N5CCOCC5)nc43)cc2)CC1 [Example D-42, {4-[4-(2-Amino-pyrimidin-5-yl)-2-morpholin-4-yl-5,6-dihydro-pyrrolo[2,3-d]pyrimidin-7-yl]-phenyl}-(4-methyl-piperazin-1-yl)-methanone] | 0.014 | 94 | 88 | 91
9 | CCN1CCN(C(=O)c2ccc(N3CCc4c(-c5cnc(N)nc5)nc(N5CCOCC5)nc43)cn2)CC1 [Example D-95, {5-[4-(2-Amino-pyrimidin-5-yl)-2-morpholin-4-yl-5,6-dihydro-pyrrolo[2,3-d]pyrimidin-7-yl]-pyridin-2-yl}-(4-ethyl-piperazin-1-yl)-methanone] | 0.007 | 83 | 91 | 93
10 | CCN1CCN(C(=O)c2cccc(NC(=O)N3CCc4c(-c5cnc(N)nc5)nc(N5CCOCC5)nc43)c2)CC1 [Example D-101, 4-(2-Amino-pyrimidin-5-yl)-2-morpholin-4-yl-5,6-dihydro-pyrrolo[2,3-d]pyrimidine-7-carboxylic acid [3-(4-ethyl-piperazine-1-carbonyl)-phenyl]-amide] | 0.009 | 67 | 89 | 92

Further lines, with some results ahead:

Row | IC50 (human PI3K(p110α/p85α)) [µM] | SMILES | inhibition at 2.5 µM [1] [%] | inhibition at 2.5 µM [2] [%] | inhibition at 2.5 µM [3] [%]
11 | 0.007 | Nc1ncc(-c2nc(N3CCOCC3)nc3c2CCN3C(=O)Nc2cccc(C(=O)N3CCOCC3)c2)cn1 [Example D-102, 4-(2-Amino-pyrimidin-5-yl)-2-morpholin-4-yl-5,6-dihydro-pyrrolo[2,3-d]pyrimidine-7-carboxylic acid [3-(morpholine-4-carbonyl)-phenyl]-amide] | 94 | 70 | 72
12 | 0.006 | CCN1CCN(C(=O)c2ccc(NC(=O)N3CCc4c(-c5cnc(N)nc5)nc(N5CCOCC5)nc43)cc2)CC1 [Example D-103, 4-(2-Amino-pyrimidin-5-yl)-2-morpholin-4-yl-5,6-dihydro-pyrrolo[2,3-d]pyrimidine-7-carboxylic acid [4-(4-ethyl-piperazine-1-carbonyl)-phenyl]-amide] | 92 | 80 | 74
13 | 0.006 | Nc1ncc(-c2nc(N3CCOCC3)nc3c2CCN3C(=O)Nc2ccc(C(=O)N3CCOCC3)cc2)cn1 [Example D-104, 4-(2-Amino-pyrimidin-5-yl)-2-morpholin-4-yl-5,6-dihydro-pyrrolo[2,3-d]pyrimidine-7-carboxylic acid [4-(morpholine-4-carbonyl)-phenyl]-amide] | 67 | 34 | 37
14 | 0.007 | Nc1ncc(-c2nc(N3CCOCC3)nc3c2CCN3C(=O)Nc2ccc(NCCN3CCOCC3)cc2)cn1 [Example D-108, 4-(2-Amino-pyrimidin-5-yl)-2-morpholin-4-yl-5,6-dihydro-pyrrolo[2,3-d]pyrimidine-7-carboxylic acid [4-(2-morpholin-4-yl-ethylamino)-phenyl]-amide] | 95 | 90 | 92
15 | 0.008 | Nc1ncc(-c2nc(N3CCOCC3)nc3c2CCN3c2ccc(C(=O)N3CCNCC3)nc2)cn1 [Example D-128, {5-[4-(2-Amino-pyrimidin-5-yl)-2-morpholin-4-yl-5,6-dihydro-pyrrolo[2,3-d]pyrimidin-7-yl]-pyridin-2-yl}-piperazin-1-yl-methanone] | 95 | 60 | 81
16 | 0.092 | Cc1cc(C(=O)N2CCOCC2)ccc1N1CCc2c(-c3cnc(N)nc3)nc(N3CCOCC3)nc21 [Example D-137, {4-[4-(2-Amino-pyrimidin-5-yl)-2-morpholin-4-yl-5,6-dihydro-pyrrolo[2,3-d]pyrimidin-7-yl]-3-methyl-phenyl}-morpholin-4-yl-methanone] | 52 | 71 | 60
